# Assay results reported in patent US12257235B2, “Methods and materials for using ruminococcus gnavus or clostridium sporogenes to treat gastrointestinal disorders” (Mayo Foundation for Medical Education and Research, priority 2015, dated 2025).
# “Also recorded” adds a separate entry of the source. Like-named read-outs stand apart in the source and are kept apart here.
# Experiments:
# RUMGNA_01526 [1] = target: T1, RUMGNA_01526 (Mediterraneibacter gnavus, UniProt A7B1V0); assay: Inhibition of RUMGNA_01526 tryptamine production by (S)-α-FMT, progress curves; format: biochemical, Ruminococcus gnavus; conditions: RUMGNA_01526, 2.5 mM Trp
# T1 construct: His6 (N); made in house; host or cells: E. coli BL21 (DE3)
# Description: (§1) Progress curves were fitted to the equation [P]=(vi/kobs)(1−exp(−kObst)), where P is the product formed at time t, vi is the initial velocity, and kobs is the apparent first-order rate constant for enzyme inactivation. The kobs were plotted versus inhibitor concentration and fitted to the equation kobs=kinact[I]/(Kapp+[I]), where Kapp is the apparent dissociation constant of the reversible enzyme-inhibitor complex, and kinact is the first-order rate constant for apparent irreversible conversion of the enzyme-inhibitor complex to covalently bound complex. Ki values were calculated using the equation Ki=Kapp/(1+[tryptophan])/Km,Trp) using experimentally determined Km values for tryptophan (Schirmer et al., Proc. Natl. Acad. Sci. USA, 103(11):4234-4239 (2006)).
# (§2) The production of tryptamine was measured by HPLC in the presence of various concentrations of inhibitor over 30 minutes and progress curves of the reaction were analyzed to assess the kinetics of inhibition.
# CLOSPO_02083 [2] = target: T2, CLOSPO_02083 (Clostridium sporogenes, UniProt J7SZ64); assay: Inhibition of CLOSPO_02083 tryptamine production by (S)-α-FMT, progress curves; format: biochemical; conditions: CLOSPO_02083, 10 mM Trp
# T2 construct: His6 (N); made in house; host or cells: E. coli BL21 (DE3)
# Description: as §1, §2
# [3] = test system: proximal colon, stripped of external muscle layers; assay: Ussing chamber short circuit current of proximal colon from GF, HM and CR mice; conditions: for EC50: Mus musculus; for EC50 / Emax (Δ Isc): serosal; for cumulative concentration response curves (intestinal secretion): serosal application, GF vs HM and CR mice
# Method: Colonic mucosal transepithelial resistance (TER) was measured at the beginning of each experiment and FITC Dextran (4 k Da) flux was determined from the linear fit of samples obtained from the serosal side every 5 minutes for 30 minutes after adding 1 mg/mL FITC-Dextran to the mucosal side. Change in short circuit current (Δ lsc) was determined in response to electrical field stimulation (EFS) using foil electrodes on the submucosal side (30-150V, 100 0.5 ms pulses at 1-2 Hz). There was no significant difference in Δ lsc between GF and HM in response to EFS at 1 Hz (138±42 vs 202±71 μA/cm^2; n=4; p>0.05) or 2 Hz (180±28 vs 252±70 μA/cm^2; n=4; p>0.05).
# Acetylcholine (Ach) in increasing concentrations (0.01-300 μM) on the serosal side was used as a control for tissue reactivity. Cumulative concentration response curves induced by serosal ACh were not different between GF and HM as evident by similar Emax (261±38 vs 299±27 μA/cm^2; n=5; p>0.05) and EC50 (20.6±3 vs 22.7±9 μM) values.
# [4] = test system: tryptophan hydroxylase 1 (Tph1) mRNA expression in BON cells
# Method: Cells were plated at 1×10^5 per ml and grown to 90% confluency in 12-well culture plates. Culture wells were then treated (in triplicate) with tryptamine in media for 6 hours, fixed in RNA Protect (Qiagen) and subjected to qRT-PCR.
# CLOSPO_02083 [5] = target: T2, CLOSPO_02083; format: biochemical; conditions: for decarboxylation of Phe by CLOSPO_02083: up to 90 mM substrate, 60 minutes
# Method: (§3) Reaction mixtures contained 50 mM sodium phosphate pH 6.5, 300 mM NaCl, and […] PLP. Reactions were initiated by the addition of enzyme and terminated by quenching aliquots with 1 volume of MeOH and performed at 37° C. All substrates purchased from Sigma-Aldrich.
# (§4) Under the same buffer and reaction conditions, the kinetic parameters for the decarboxylation of phenylalanine by RUMGNA_01526 were determined by adding RUMGNA_01526 to a final concentration of 500 nM, and the concentration of phenylalanine varied from 5-80 mM. Reactions proceeded for 10 minutes. The kinetic parameters for the decarboxylation of tryptophan by CLOSPO_02083 were determined by adding CLOSPO_02083 to a final concentration of 100 nM, and the concentration of tryptophan varied from 0.15-24.5 mM. Reactions proceeded for 6 minutes.
# To gain insight into the substrate selectivity of CLOSPO_02083, the basic kinetic parameters were measured for CLOSPO_02083-catalyzed decarboxylation of the aromatic amino acids Trp, Tyr, and phenylalanine (Phe). To determine kcat and Km for CLOSPO_02083, the concentration of the amino acid substrate was varied under initial velocity conditions (FIGS. 3C and 4A).
# RUMGNA_01526 [6] = target: T1, RUMGNA_01526; format: biochemical, Ruminococcus gnavus
# Method: as §3
# To determine the kinetic parameters for the decarboxylation of tryptophan by RUMGNA 01526, RUMGNA_01526 was added to a final concentration of 10 nM, and kcat and Km were determined by varying the concentration of tryptophan from 0.15-10 mM. Reactions proceeded for 7 minutes and were quenched as described. 100 μL of the quenched reaction was analyzed by HPLC. Peak areas were integrated and compared with a standard curve to calculate product concentration. Triplicate measurements were made from a single batch of purified enzyme. Initial velocity data were fit to the Michaelis-Menten equation by using the program GraphPad. The allosteric sigmoidal model was used by fitting to the Hill equation: y=vmax*x^h/(K0.5^h+x^h), where h is the Hill coefficient and K0.5 is the apparent concentration at half maximal velocity.
# as §4
# Basic kinetic parameters were measured for the decarboxylation of Trp, Tyr, and Phe by RUMGNA_01526.
# [7] = test system: proximal colon, stripped of external muscle layers; assay: Ussing chamber short circuit current of proximal colon from GF, HM and CR mice; conditions: HM or CR mice
# 5HTR4 = conditions: for response (Δ Isc) to mucosal application / response (Δ Isc) to serosal application: 5HTR4 KO mice
# Method: The response to […] (5HT; 0.003-300 μM) on the mucosal or serosal side and tryptamine (0.003-3000 μM) on the mucosal or serosal side was determined in segments of proximal colon, stripped of external muscle layers, from both 5HTR4 KO and WT mice.
# [8] = test system: full-thickness colonic segments; assay: Open organ bath intraluminal pressure of mouse colonic segments ex vivo
# Method: Preparations of full-thickness colonic segments (˜1.5 cm) were allowed to equilibrate in 37° C. Kreb's-jacketed organ baths with their distal ends opening to a pressure transducer and maintained under basal pressure of 5-cm column of vehicle (RL). The proximal end was closed during pressure recordings but opened to allow luminal infusion of vehicle or tryptamine in solution (100 μM, 1 mM and 3 mM; 10 minutes per treatment; n=5-7 mice).
# [9] = test system: proximal-mid colon, stripped of external muscle layers; assay: Ion secretion from the murine colon, Ussing chamber short circuit current; design: species or system SvEv129 mice; conditions: 3 mM tryptamine, mucosal side
# Method: A segment of proximal-mid colon, stripped of external muscle layers from each of three SvEv129 mice was mounted in 0.3 cm^2 area, 4 mL Ussing chamber. […] (FIG. 6).
# The function of tryptamine in the context of microbe-host signaling in the gut was examined. An experiment to test whether tryptamine is capable of inducing ion secretion by intestinal epithelial cells was performed. Using an Ussing chamber, a segment of proximal-mid murine colon mucosa was exposed to two concentrations of tryptamine and the change of short circuit current was measured.
# [10] = at the highest concentration of Tyr tested
# [11] = any of the tryptamine concentrations
# [12] = 1 μM enzyme, 2.28 mM tyrosine, 90 minutes
# T2 sequence (J7SZ64 whole entry): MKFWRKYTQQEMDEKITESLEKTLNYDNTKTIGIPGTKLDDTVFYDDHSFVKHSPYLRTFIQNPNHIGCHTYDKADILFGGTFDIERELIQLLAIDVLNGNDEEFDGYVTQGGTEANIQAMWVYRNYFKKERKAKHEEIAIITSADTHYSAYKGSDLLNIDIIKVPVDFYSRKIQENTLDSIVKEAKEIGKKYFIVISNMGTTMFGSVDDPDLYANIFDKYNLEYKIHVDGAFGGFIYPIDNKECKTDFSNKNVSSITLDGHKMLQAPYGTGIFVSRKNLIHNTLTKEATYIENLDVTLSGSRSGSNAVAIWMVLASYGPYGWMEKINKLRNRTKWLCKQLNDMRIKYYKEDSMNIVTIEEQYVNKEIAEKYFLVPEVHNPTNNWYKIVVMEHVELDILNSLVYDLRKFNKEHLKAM
compound,measurement,setting,value
"N[C@@](CF)(Cc1c[nH]c2ccccc12)C(=O)O [(S)-α-FMT, (S)-α-fluoromethyltryptophan]",Ki,RUMGNA_01526 [1],178 µM
same,kinact,RUMGNA_01526 [1],0.02 s⁻¹
same,Ki,CLOSPO_02083 [2],0.2 µM
same,kinact,CLOSPO_02083 [2],0.00167 s⁻¹
"CC(=O)OCC[N+](C)(C)C [ACh, Acetylcholine]",EC50,[3]; GF mice,20.6 ± 3 µM
same,EC50,[3]; HM mice,22.7 ± 9 µM
same,Emax (Δ Isc),[3]; GF mice,261±38 μA/cm^2
same,Emax (Δ Isc),[3]; HM mice,299±27 μA/cm^2
"CCCC(=O)O [Butyrate, butyrate]",Tph1 mRNA induction above controls,[4]; butyrate 500 μM,3.5 fold
same,Tph1 mRNA induction above controls,[4]; butyrate 1 mM,2.5 fold
"N[C@@H](Cc1ccccc1)C(=O)O [Phe, phenylalanine]",decarboxylation of Phe by CLOSPO_02083,CLOSPO_02083 [5]; 1 μM enzyme,undetectable
same,decarboxylation of Phe by CLOSPO_02083,"CLOSPO_02083 [5]; 1 μM enzyme, listed as phenylalanine",not observed
"N[C@@H](Cc1c[nH]c2ccccc12)C(=O)O [Trp, tryptophan]",Km for Trp relative to Phe (lower),RUMGNA_01526 [6]; RUMGNA_01526,70 fold
same,catalytic efficiency for Trp relative to Phe,RUMGNA_01526 [6]; RUMGNA_01526,> 1000 fold
same,kcat for Trp relative to Phe (higher),RUMGNA_01526 [6]; RUMGNA_01526,19 fold
same,efficiency of decarboxylating Trp relative to Tyr,RUMGNA_01526 [6]; [10],1000 fold
same,kcat,RUMGNA_01526 [6]; decarboxylation of Trp by RUMGNA_01526,73.33 s⁻¹
same,Km,"RUMGNA_01526 [6]; decarboxylation of Trp by RUMGNA_01526, 10 nM enzyme, 37° C.",1100 ± 100 µM
same,efficiency of decarboxylating Trp relative to Tyr,CLOSPO_02083 [5]; [10],600 fold
same,kcat,CLOSPO_02083 [5]; decarboxylation of Trp by CLOSPO_02083,20 s⁻¹
same,Km,"CLOSPO_02083 [5]; decarboxylation of Trp by CLOSPO_02083, 100 nM enzyme, 37° C.",2800 µM
CC(=O)O [acetate],Tph1 expression induction,[4]; acetate 10 mM,2.5 fold
same,Tph1 expression induction,[4]; acetate 30 mM,3.2 fold
same,Tph1 expression induction,[4]; acetate 50 mM,2.2 fold
"NCCc1c[nH]c2ccc(O)cc12 [serotonin, 5-hydroxy tryptamine, reference compound]",biological effect in the presence of 5HT3 receptor antagonist,[7],blocked the biological effect
same,biological effect in the presence of 5HT4 receptor antagonist,[7],blocked the biological effect
same,maximal response (Emax) in the presence of 5HT3 receptor antagonist,[7],can be blocked
same,maximal response (Emax) in the presence of 5HT4 receptor antagonist,[7],can be blocked
same,response (Δ Isc) to mucosal application,5HTR4,no response
same,response (Δ Isc) to serosal application,5HTR4,decreased responsiveness
same,cumulative concentration response curves (intestinal secretion),[3],significantly higher in GF compared to HM and CR
NCCc1c[nH]c2ccccc12 [tryptamine],biological effect in the presence of 5HT3 receptor antagonist,[7],did not block
same,biological effect in the presence of 5HT4 receptor antagonist,[7],blocked the biological effect
same,maximal response (Emax) in the presence of 5HT3 receptor antagonist,[7],is not blocked
same,maximal response (Emax) in the presence of 5HT4 receptor antagonist,[7],can be blocked
same,response (Δ Isc) to mucosal application,5HTR4,no response
same,response (Δ Isc) to serosal application,5HTR4,no response
same,Δ Isc response,"5HTR4; mucosal application of 3000 μM, 5HTR4 WT mice, maximum response not reached",99.5±30.7
same,Emax (Δ Isc),"5HTR4; serosal application, 5HTR4 WT mice",110±17 μA/cm2
same,"contractile duration, measured at half amplitude, vs vehicle",[8]; any of the luminal tryptamine treatments,not significantly different
same,"contractile magnitude, area under the curve, vs vehicle",[8]; [11],not significantly different
same,mean contractile amplitude vs vehicle,[8]; [11],not significantly different
same,contractile frequency vs vehicle controls,"[8]; luminal 100 μM, 1 mM and 3 mM",not significantly different
same,contractile frequency,"[8]; luminal 1 mM tryptamine, vehicle control 4.1±0.6, P=0.15",5.9±0.8
same,cumulative concentration response curves (intestinal secretion),[3],significantly higher in GF compared to HM and CR
same,alteration of Tph1 mRNA levels,"[4]; 1 μM, 5 μM, 10 μM and 20 μM, 6 hours","None of the tested tryptamine concentrations (1 μM, 5 μM, 10 μM, and 20 μM) reproducibly showed a significant alteration"
same,change in short circuit current (ion secretion),[9],significant change in short circuit current; also recorded: significant increase
N[C@@H](Cc1ccc(O)cc1)C(=O)O [tyrosine],decarboxylation of tyrosine by RUMGNA_01526,RUMGNA_01526 [6]; [12],observed
same,decarboxylation of tyrosine by CLOSPO_02083,CLOSPO_02083 [5]; [12],observed
